Literature values in patent US5348950A, “Platinum(II) complex and antitumor agent” (Toray Industries, Inc., priority 1991, dated 1994).

Conditions: background statement

Row | SMILES | anti-tumor activity | side effects
1 | N.N.O=C([O-])C1(C(=O)[O-])CCC1.[Pt+2] [CBDCA, cisdiammine(1,1-cyclobutanedicarboxylato)platinum(II)] | low anti-tumor activity | 
2 | N.N.[Cl][Pt][Cl] [CDDP, cisdiamminedichloroplatinum(II)] |  | strong side effects
